pIC50: −log10 of the molar value. Read-outs that look alike come from different tables or passages of the source.
How the values were obtained:
[1] = system: tumor cells with a PI3Kα mutation (e.g., MDA-MB-361 and T47D); experiment: Proliferation of tumor cells with PI3Kα mutation; assay type: cell-based; details: Homo sapiens
p110γ = p110γ (Homo sapiens (Human), UniProt P48736); experiment: PI 3-Kinase (human) HTRF assay, p110γ; assay type: biochemical
p110α/p85α = p110α/p85α (Homo sapiens (Human), UniProt P42336); experiment: PI 3-Kinase (human) HTRF assay, p110α/p85α; assay type: biochemical
p110β/p85α = p110β/p85α (Homo sapiens (Human), UniProt P42338); experiment: PI 3-Kinase (human) HTRF assay, p110β/p85α; assay type: biochemical
Procedure: An exemplary system is PI 3-Kinase (human) HTRF™ Assay from Upstate. […] Briefly, the assay is a time resolved FRET assay that indirectly measures PIP3 product formed by the activity of a PI3-K. The kinase reaction is performed in a microtitre plate (e.g., a 384 well microtitre plate). The total reaction volume is approximately 20 ul per well. In the first step, each well receives 2 ul of test compound in 20% dimethylsulphoxide resulting in a 2% DMSO final concentration. Next, approximately 14.5 ul of a kinase/PIP2 mixture (diluted in 1× reaction buffer) is added per well for a final concentration of 0.25-0.3 ug/ml kinase and 10 μM PIP2. The plate is sealed and incubated for 15 minutes at room temperature. To start the reaction, 3.5 ul of ATP (diluted in 1× reaction buffer) is added per well for a final concentration of 10 μM ATP. The plate is sealed and incubated for 1 hour at room temperature. The reaction is stopped by adding 5 ul of Stop Solution per well and then 5 ul of Detection Mix is added per well. The plate is sealed, incubated for 1 hour at room temperature, and then read on an appropriate plate reader. Data is analyzed and IC50s are generated using GraphPad Prism 5. […] For PI3K α, β, δ, and γ, the nM concentration of inhibitor to reach IC50 is provided.

p110δ/p85α = p110δ/p85α (Homo sapiens (Human), UniProt O00329); experiment: PI 3-Kinase (human) HTRF assay, p110δ/p85α; assay type: biochemical
[2] = T47D cells, read-out: T47D proliferation IC50
[3] = in vitro, read-out: PI3K γ IC50
[4] = in vitro, read-out: PI3K α IC50
[5] = in vitro, read-out: PI3K β IC50
[6] = in vitro, read-out: PI3K δ IC50
[7] = T47D cells, read-out: T47D proliferation
[8] = PC3, read-out: PC3 proliferation In Vitro IC50

Sequence of p110γ (P48736 whole entry): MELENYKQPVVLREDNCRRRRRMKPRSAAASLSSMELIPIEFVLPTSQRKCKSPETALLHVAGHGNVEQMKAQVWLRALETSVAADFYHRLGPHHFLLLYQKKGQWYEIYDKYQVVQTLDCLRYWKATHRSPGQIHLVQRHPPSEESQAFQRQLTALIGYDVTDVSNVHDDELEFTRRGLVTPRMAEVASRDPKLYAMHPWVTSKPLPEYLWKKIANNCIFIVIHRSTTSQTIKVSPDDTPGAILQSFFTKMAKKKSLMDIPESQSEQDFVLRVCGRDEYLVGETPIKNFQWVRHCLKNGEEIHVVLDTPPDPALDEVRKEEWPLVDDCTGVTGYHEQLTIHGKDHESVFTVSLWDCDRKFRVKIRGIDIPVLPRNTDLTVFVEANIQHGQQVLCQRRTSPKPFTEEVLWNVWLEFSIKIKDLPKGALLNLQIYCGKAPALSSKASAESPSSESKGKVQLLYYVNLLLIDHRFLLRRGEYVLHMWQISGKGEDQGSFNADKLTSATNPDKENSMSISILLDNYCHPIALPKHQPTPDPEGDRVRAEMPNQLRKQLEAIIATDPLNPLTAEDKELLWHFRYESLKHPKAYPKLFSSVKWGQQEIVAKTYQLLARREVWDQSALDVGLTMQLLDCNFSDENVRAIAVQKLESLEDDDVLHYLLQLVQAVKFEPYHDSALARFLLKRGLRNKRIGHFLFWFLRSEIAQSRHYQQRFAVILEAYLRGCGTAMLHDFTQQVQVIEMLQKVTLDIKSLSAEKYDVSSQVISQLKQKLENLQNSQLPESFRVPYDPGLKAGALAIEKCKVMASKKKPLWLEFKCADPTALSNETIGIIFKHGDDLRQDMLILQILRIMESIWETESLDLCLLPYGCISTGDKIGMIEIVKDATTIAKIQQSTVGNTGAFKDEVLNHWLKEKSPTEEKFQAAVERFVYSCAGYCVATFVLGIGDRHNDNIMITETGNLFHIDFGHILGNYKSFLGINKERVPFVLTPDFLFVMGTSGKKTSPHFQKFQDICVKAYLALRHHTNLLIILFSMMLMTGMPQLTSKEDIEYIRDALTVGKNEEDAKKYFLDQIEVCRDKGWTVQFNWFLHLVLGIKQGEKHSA
Sequence of p110δ/p85α (O00329 whole entry): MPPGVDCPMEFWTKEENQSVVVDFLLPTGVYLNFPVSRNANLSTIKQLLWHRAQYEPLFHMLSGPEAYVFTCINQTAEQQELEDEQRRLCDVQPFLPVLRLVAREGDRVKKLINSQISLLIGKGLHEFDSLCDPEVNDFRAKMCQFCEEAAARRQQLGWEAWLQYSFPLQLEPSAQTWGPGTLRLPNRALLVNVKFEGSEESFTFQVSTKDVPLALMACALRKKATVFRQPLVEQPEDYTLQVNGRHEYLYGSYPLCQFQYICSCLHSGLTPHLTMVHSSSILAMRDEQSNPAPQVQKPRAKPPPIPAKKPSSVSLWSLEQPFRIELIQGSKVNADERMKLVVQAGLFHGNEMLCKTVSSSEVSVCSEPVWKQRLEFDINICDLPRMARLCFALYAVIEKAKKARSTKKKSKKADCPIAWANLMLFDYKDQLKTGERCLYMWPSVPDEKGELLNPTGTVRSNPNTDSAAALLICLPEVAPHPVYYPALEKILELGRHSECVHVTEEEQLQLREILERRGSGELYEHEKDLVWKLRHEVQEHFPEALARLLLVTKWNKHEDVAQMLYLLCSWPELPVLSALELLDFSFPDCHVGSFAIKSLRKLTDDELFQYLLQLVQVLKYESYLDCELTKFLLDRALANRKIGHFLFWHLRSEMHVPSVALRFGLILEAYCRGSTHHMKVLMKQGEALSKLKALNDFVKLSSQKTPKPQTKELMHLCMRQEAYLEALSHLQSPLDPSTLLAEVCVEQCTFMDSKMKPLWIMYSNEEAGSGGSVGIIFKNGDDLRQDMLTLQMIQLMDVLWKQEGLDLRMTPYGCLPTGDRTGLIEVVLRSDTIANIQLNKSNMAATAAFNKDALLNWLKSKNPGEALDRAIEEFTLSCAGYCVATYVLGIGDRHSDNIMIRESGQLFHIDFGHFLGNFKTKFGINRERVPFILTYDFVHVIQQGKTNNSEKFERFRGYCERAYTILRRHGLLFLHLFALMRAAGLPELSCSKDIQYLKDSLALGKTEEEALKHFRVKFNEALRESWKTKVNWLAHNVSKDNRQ
Sequence of p110δ/p85α (P27986 whole entry partner): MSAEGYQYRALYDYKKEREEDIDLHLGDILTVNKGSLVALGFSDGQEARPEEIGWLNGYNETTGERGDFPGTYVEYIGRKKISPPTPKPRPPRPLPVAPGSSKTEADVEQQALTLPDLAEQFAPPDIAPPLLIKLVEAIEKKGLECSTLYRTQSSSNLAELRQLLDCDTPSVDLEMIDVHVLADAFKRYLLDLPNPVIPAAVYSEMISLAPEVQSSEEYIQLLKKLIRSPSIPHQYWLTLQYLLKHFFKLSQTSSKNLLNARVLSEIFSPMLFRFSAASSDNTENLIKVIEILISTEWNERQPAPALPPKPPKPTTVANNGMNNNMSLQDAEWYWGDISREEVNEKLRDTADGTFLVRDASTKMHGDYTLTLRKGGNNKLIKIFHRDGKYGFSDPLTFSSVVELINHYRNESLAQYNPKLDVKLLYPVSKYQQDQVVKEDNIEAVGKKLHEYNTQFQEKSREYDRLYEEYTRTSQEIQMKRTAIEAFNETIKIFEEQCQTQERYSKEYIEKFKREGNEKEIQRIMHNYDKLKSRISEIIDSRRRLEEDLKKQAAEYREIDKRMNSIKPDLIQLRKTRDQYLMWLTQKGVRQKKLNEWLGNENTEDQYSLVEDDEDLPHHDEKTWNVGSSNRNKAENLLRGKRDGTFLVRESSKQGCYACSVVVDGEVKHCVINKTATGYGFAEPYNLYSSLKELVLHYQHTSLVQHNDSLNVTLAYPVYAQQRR
Sequence of p110β/p85α (P42338 whole entry): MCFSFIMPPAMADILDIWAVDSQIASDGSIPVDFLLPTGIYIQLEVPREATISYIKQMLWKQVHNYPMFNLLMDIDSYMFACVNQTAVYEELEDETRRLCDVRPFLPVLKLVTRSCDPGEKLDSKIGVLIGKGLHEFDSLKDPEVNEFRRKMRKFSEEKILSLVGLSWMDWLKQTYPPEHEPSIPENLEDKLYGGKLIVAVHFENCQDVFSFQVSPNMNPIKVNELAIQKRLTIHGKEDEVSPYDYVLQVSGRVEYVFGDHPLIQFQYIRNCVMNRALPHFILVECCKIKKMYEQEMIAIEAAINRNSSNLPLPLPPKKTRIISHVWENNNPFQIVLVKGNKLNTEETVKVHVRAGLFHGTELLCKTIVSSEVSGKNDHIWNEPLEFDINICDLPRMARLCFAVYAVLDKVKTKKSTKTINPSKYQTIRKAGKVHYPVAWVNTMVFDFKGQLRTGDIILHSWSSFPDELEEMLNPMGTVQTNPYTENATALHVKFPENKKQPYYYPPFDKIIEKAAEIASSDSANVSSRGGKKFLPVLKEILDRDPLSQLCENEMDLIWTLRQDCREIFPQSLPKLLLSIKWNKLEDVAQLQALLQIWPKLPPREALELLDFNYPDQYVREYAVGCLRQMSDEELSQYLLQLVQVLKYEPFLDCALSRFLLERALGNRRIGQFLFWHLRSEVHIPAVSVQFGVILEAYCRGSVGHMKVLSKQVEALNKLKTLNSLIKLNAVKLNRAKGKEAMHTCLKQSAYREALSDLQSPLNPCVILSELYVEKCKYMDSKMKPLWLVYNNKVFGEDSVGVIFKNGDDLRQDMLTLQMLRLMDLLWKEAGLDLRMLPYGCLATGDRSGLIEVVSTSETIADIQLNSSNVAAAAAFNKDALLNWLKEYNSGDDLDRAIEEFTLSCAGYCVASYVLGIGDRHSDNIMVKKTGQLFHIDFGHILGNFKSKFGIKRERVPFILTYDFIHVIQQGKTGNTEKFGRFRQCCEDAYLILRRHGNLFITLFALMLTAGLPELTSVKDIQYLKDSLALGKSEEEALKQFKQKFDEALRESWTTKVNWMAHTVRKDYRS
Sequence of p110β/p85α (P27986 whole entry partner): as the sequence (P27986 whole entry partner) above
Sequence of p110α/p85α (P42336 whole entry): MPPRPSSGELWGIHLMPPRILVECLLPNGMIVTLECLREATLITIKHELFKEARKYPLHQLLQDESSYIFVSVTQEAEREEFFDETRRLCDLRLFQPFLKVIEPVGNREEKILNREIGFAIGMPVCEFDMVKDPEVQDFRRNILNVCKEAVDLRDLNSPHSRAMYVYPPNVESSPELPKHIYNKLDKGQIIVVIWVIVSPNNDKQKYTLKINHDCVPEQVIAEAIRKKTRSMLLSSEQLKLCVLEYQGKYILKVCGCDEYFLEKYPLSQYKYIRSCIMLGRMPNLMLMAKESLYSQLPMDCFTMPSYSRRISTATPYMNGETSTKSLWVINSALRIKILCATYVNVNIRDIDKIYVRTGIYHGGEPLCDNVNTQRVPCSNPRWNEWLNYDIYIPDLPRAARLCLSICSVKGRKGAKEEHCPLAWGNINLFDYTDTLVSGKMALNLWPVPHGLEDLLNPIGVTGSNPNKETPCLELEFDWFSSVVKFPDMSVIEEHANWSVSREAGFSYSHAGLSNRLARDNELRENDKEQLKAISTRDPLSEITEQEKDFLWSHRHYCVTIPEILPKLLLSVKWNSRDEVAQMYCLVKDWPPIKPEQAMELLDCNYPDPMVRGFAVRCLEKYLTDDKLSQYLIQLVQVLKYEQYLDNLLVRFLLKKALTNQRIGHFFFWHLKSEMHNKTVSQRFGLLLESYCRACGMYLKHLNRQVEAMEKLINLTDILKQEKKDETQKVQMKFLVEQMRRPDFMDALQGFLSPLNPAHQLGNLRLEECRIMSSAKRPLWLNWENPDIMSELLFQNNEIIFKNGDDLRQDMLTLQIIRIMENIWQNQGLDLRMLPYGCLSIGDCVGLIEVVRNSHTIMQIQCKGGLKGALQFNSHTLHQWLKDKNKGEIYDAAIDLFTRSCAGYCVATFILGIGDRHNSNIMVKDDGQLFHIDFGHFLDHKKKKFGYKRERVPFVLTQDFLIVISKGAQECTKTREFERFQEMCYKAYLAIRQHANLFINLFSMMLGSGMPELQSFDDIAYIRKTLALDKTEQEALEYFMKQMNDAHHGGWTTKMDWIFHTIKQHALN
Sequence of p110α/p85α (P27986 whole entry partner): as the sequence (P27986 whole entry partner) above

SMILES	pIC50 [1, 2]	pIC50 (p110γ; [3])	pIC50 (p110α/p85α; [4])	pIC50 (p110β/p85α; [5])	pIC50 (p110δ/p85α; [6])	pIC50 [1, 7]	pIC50 (p110γ; read-out: PI3K γ IC50)	pIC50 (p110α/p85α; read-out: PI3K α IC50)	pIC50 (p110β/p85α; read-out: PI3K β IC50)	pIC50 (p110δ/p85α; read-out: PI3K δ IC50)	other results
C[C@H](N)C(=O)N1CCN(c2cnc3ccc(-c4ccc5oc(N)nc5c4)cc3n2)CC1 [compound 207]	> 6.00	> 7.00	> 7.00	> 7.00	> 6.00						
Nc1nc2cc(-c3ccn4ncc(-c5ccncc5)c4c3)ccc2o1 [compound 356]	> 6.00	> 7.00	> 7.00	> 7.00	> 7.00						
Nc1nc2cc(-c3ccc4ncc(N5CCN(CC6CC6)CC5)nc4c3)ccc2o1 [compound 153]						> 6.00	> 6.00	> 7.00	> 7.00	> 6.00	
CCn1cnc2ccc(-c3ccc4oc(N)nc4c3)cc2c1=O [compound 183]						> 5.00	> 7.00	> 7.00	> 5.00	> 5.00	
CC1CN(c2cnc3ccc(-c4ccc5oc(N)nc5c4)cc3n2)CCO1 (stereo not drawn) [compound 173]						> 5.00	> 7.00	> 7.00	> 6.00	> 5.00	
Nc1nc2cc(-c3ccc4ncc(C(=O)N5CC[C@H](O)C5)n4c3)ccc2o1 [compound 264]	> 6.00	> 6.00	> 7.00	> 5.00	> 5.00						
O=C(c1cnc2ccc(-c3cnc(Cl)c(NS(=O)(=O)c4ccc(F)cc4)c3)cn12)N1CCOCC1 [compound 457]											pIC50 [1, 8]: > 6.00; pIC50 (p110γ; read-out: PI3K γ In Vitro IC50): > 7.00; pIC50 (p110α/p85α; read-out: PI3K α In Vitro IC50): > 7.00; pIC50 (p110β/p85α; read-out: PI3K β In Vitro IC50): > 7.00; pIC50 (p110δ/p85α; read-out: PI3K δ In Vitro IC50): > 7.00
COc1ccc(-c2ccc3ncc(C(=O)N4CCOCC4)n3c2)cc1NS(=O)(=O)c1cccnc1 [compound 462]											pIC50 [1, 8]: > 6.00; pIC50 (p110γ; read-out: PI3K γ In Vitro IC50): > 7.00; pIC50 (p110α/p85α; read-out: PI3K α In Vitro IC50): > 7.00; pIC50 (p110β/p85α; read-out: PI3K β In Vitro IC50): > 7.00; pIC50 (p110δ/p85α; read-out: PI3K δ In Vitro IC50): > 7.00
CN1CCC(NC(=O)c2cnc3ccc(-c4ccc5oc(N)nc5c4)cn23)CC1 [compound 159]						> 5.00	> 6.00	> 7.00	> 6.00	> 7.00	
CN1CCN(c2cnc3ccc(-c4ccc5oc(N)nc5c4)cc3n2)CC1 [compound 65]						> 5.00	> 6.00	> 7.00	> 7.00	> 5.00	
Nc1nc2cc(-c3ccc4ncc(C(=O)N5CCN(C6CC6)CC5)n4c3)ccc2o1 [compound 263]	> 5.00	> 5.00	> 7.00	> 5.00	> 5.00						
CCN(CC)CC(=O)N1CCN(c2cnc3ccc(-c4ccc5oc(N)nc5c4)cc3n2)CC1 [compound 279]	> 6.00	> 5.00	> 7.00	> 5.00	> 5.00						
CN1CCN(CCNc2cnc3ccc(-c4ccc5oc(N)nc5c4)cc3n2)CC1 [compound 275]	> 6.00	> 6.00	> 7.00	> 6.00	> 6.00						
C[C@@H]1CN(C2CN(C(=O)c3cnc4ccc(-c5ccc6oc(N)nc6c5)cn34)C2)CCN1C [compound 508]											pIC50 [1, 8]: > 6.00; pIC50 (p110γ; read-out: PI3K γ In Vitro IC50): > 5.00; pIC50 (p110α/p85α; read-out: PI3K α In Vitro IC50): > 7.00; pIC50 (p110β/p85α; read-out: PI3K β In Vitro IC50): > 5.00; pIC50 (p110δ/p85α; read-out: PI3K δ In Vitro IC50): > 6.00
Nc1nc2cc(-c3ccc4ncc(C(=O)N5CCCC5)n4c3)ccc2o1 [compound 186]						> 5.00	> 7.00	> 7.00	> 5.00	> 6.00	
Nc1nc2cc(-c3ccc4ncc(N5CC(N6CCN(CCO)CC6)C5)nc4c3)ccc2o1 [compound 333]	> 6.00	> 5.00	> 7.00	> 5.00	> 6.00						
Nc1nc2cc(-c3ccc4sc(N)nc4c3)ccc2o1 [compound 248]	> 5.00	> 6.00	> 5.00	> 6.00	> 5.00						
CC(C)(C)N1CCN(c2cnc3ccc(-c4ccc5oc(N)nc5c4)cc3n2)CC1 [compound 182]						> 5.00	> 6.00	> 7.00	> 6.00	> 6.00	
Nc1nc2cc(-c3ccc4ncc(C(=O)N5CCC(O)C5)n4c3)ccc2o1 (stereo not drawn) [compound 202]	> 6.00	> 6.00	> 7.00	> 5.00	> 5.00						
C[C@H]1CN(C(=O)C2CN(c3cnc4ccc(-c5ccc6oc(N)nc6c5)cc4n3)C2)CCN1 [compound 268]	> 6.00	> 6.00	> 7.00	> 5.00	> 5.00						
Nc1nc2cc(-c3ccc4ncc(N5CCNCC5)nc4c3)ccc2o1 [compound 88]						> 5.00	> 6.00	> 7.00	> 7.00	> 5.00	

SMILES	pIC50 [1, 2]	pIC50 (p110γ; [3])	pIC50 (p110α/p85α; [4])	pIC50 (p110β/p85α; [5])	pIC50 (p110δ/p85α; [6])	pIC50 [1, 7]	pIC50 (p110γ; read-out: PI3K γ IC50)	pIC50 (p110α/p85α; read-out: PI3K α IC50)	pIC50 (p110β/p85α; read-out: PI3K β IC50)	pIC50 (p110δ/p85α; read-out: PI3K δ IC50)	other results
Nc1nc2cc(-c3ccc4ncc(C(=O)NCCO)n4c3)ccc2o1 [compound 189]						> 6.00	> 6.00	> 7.00	> 6.00	> 6.00	
CC(=O)N1CCC(Nc2ncnc3ccc(-c4ccc5oc(N)nc5c4)nc23)CC1 [compound 211]	> 6.00	> 7.00	> 7.00	> 7.00	> 7.00						
CN(C)CC(=O)N1CCC(Nc2ncnc3ccc(-c4ccc5oc(N)nc5c4)cc23)CC1 [compound 103]						> 5.00	> 6.00	> 7.00	> 6.00	> 6.00	
Nc1nc2cc(-c3ccc4ncc(C(=O)NCCCN5CCOCC5)n4c3)ccc2o1 [compound 288]	> 5.00	> 5.00	> 6.00	> 6.00	> 6.00						
Nc1nc2cc(-c3ccc4ncc(N5CCN(C(=O)CN6CCCC6)CC5)nc4c3)ccc2o1 [compound 278]	> 6.00	> 6.00	> 7.00	> 6.00	> 5.00						
Nc1nc2cc(-c3ccc4ncc(C(=O)NC5CC5)n4c3)ccc2o1 [compound 187]						> 6.00	> 7.00	> 7.00	> 5.00	> 6.00	
CN(C(=O)c1cnc2ccc(-c3ccc4oc(N)nc4c3)cn12)C1CCOCC1 [compound 472]											pIC50 [1, 8]: > 5.00; pIC50 (p110γ; read-out: PI3K γ In Vitro IC50): > 6.00; pIC50 (p110α/p85α; read-out: PI3K α In Vitro IC50): > 7.00; pIC50 (p110β/p85α; read-out: PI3K β In Vitro IC50): > 5.00; pIC50 (p110δ/p85α; read-out: PI3K δ In Vitro IC50): > 5.00
Nc1nc2cc(-c3ccc4ncc(N5CCN(C(=O)[C@@H]6CCCN6)CC5)nc4c3)ccc2o1 [compound 121]						> 6.00	> 7.00	> 7.00	> 7.00	> 7.00	
Nc1nc2cc(-c3ccc4ncc(C(=O)N5CC(N6CCOCC6)C5)n4c3)ccc2o1 [compound 266]	> 5.00	> 6.00	> 7.00	> 5.00	> 6.00						
Cc1nccn1-c1cnc2ccc(-c3ccc4oc(N)nc4c3)cc2n1 [compound 174]						> 5.00	> 7.00	> 7.00	> 6.00	> 5.00	
CC(C)N1CCC(n2cnc3ccc(-c4cnc(Cl)c(NS(C)(=O)=O)c4)cc3c2=O)CC1 [compound 523]											pIC50 [1, 8]: > 5.00; pIC50 (p110γ; read-out: PI3K γ In Vitro IC50): > 7.00; pIC50 (p110α/p85α; read-out: PI3K α In Vitro IC50): > 7.00; pIC50 (p110β/p85α; read-out: PI3K β In Vitro IC50): > 6.00; pIC50 (p110δ/p85α; read-out: PI3K δ In Vitro IC50): > 7.00
CC(C)N1CCC(Nc2ncnc3ccc(-c4ccc5oc(N)nc5c4)cc23)CC1 [compound 101]						> 5.00	> 5.00	> 7.00	> 5.00	> 6.00	
COC1CN(C(=O)c2cnc3ccc(-c4ccc5oc(N)nc5c4)cn23)C1 [compound 467]											pIC50 [1, 8]: > 6.00; pIC50 (p110γ; read-out: PI3K γ In Vitro IC50): > 7.00; pIC50 (p110α/p85α; read-out: PI3K α In Vitro IC50): > 7.00; pIC50 (p110β/p85α; read-out: PI3K β In Vitro IC50): > 5.00; pIC50 (p110δ/p85α; read-out: PI3K δ In Vitro IC50): > 5.00
C[C@H]1CN(C2CN(C(=O)c3cnc4ccc(-c5ccc6oc(N)nc6c5)cn34)C2)CCN1C [compound 512]											pIC50 [1, 8]: > 6.00; pIC50 (p110γ; read-out: PI3K γ In Vitro IC50): > 5.00; pIC50 (p110α/p85α; read-out: PI3K α In Vitro IC50): > 7.00; pIC50 (p110β/p85α; read-out: PI3K β In Vitro IC50): > 5.00; pIC50 (p110δ/p85α; read-out: PI3K δ In Vitro IC50): > 6.00
CS(=O)(=O)CCN1CCC(Nc2cnc3ccc(-c4ccc5oc(N)nc5c4)cc3n2)CC1 [compound 181]						> 5.00	> 7.00	> 7.00	> 5.00	> 6.00	
Nc1nc2cc(-c3ccc4ncc(N5CCN(CCO)CC5)nc4c3)ccc2o1 [compound 100]						> 6.00	> 6.00	> 7.00	> 7.00	> 5.00	
Nc1nc2cc(-c3ccc4ncc(NCCN5CCOCC5)nc4c3)ccc2o1 [compound 133]						> 5.00	> 6.00	> 7.00	> 6.00	> 6.00	
C[C@@H](N)C(=O)N1CCN(c2cnc3ccc(-c4ccc5oc(N)nc5c4)cc3n2)CC1 [compound 208]	> 5.00	> 5.00	> 7.00	> 6.00	> 6.00						
CCNC(=O)c1cnc2ccc(-c3ccc4oc(N)nc4c3)cn12 [compound 188]						> 6.00	> 7.00	> 7.00	> 6.00	> 6.00	
C[C@H]1CN(C2CN(C(=O)c3cnc4ccc(-c5ccc6oc(N)nc6c5)cn34)C2)CCN1 [compound 510]											pIC50 [1, 8]: > 5.00; pIC50 (p110γ; read-out: PI3K γ In Vitro IC50): > 5.00; pIC50 (p110α/p85α; read-out: PI3K α In Vitro IC50): > 7.00; pIC50 (p110β/p85α; read-out: PI3K β In Vitro IC50): > 5.00; pIC50 (p110δ/p85α; read-out: PI3K δ In Vitro IC50): > 6.00
C[C@@H]1CN(C2CN(C(=O)c3cnc4ccc(-c5ccc6oc(N)nc6c5)cn34)C2)CCN1 [compound 511]											pIC50 [1, 8]: > 5.00; pIC50 (p110γ; read-out: PI3K γ In Vitro IC50): > 5.00; pIC50 (p110α/p85α; read-out: PI3K α In Vitro IC50): > 7.00; pIC50 (p110β/p85α; read-out: PI3K β In Vitro IC50): > 5.00; pIC50 (p110δ/p85α; read-out: PI3K δ In Vitro IC50): > 6.00
